PubChem BioAssay (NCI)
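Following 48 hours of exposure in 96-well plates, responses at five concentrations were used to interpolate endpoints linearly. Abbreviation: GI50, concentration required for 50% inhibition of growth. TGI is the concentration that stops growth completely.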

Tests used:
Assay in all cases: DTP human tumour cell line panel, 48 h
[1] = test system: UACC-257 melanoma
[2] = test system: DLD-1 colon
[3] = test system: KM20L2 colon
[4] = test system: K-562 leukemia
[5] = test system: UO-31 renal
[6] = test system: A498 renal
[7] = test system: OVCAR-4 ovarian
[8] = test system: IGROV1 ovarian
[9] = test system: PC-3 prostate
[10] = test system: BT-549 breast

Row | SMILES | TGI [1] | TGI [2] | TGI [3] | TGI [4] | TGI [5] | TGI [6] | TGI [7] | TGI [8] | TGI [9] | TGI [10] | GI50 [1] | GI50 [9] | GI50 [10] | GI50 [5] | GI50 [6] | GI50 [7] | GI50 [8]
1 | O=C(OCc1nc2ccc(Br)cc2c(=O)n1-c1ccccc1)c1ccccc1O | > 100 µM | > 100 µM | > 100 µM | > 100 µM | > 100 µM | > 100 µM | > 100 µM | > 100 µM |  |  |  |  |  |  |  |  | 
2 | O=C1c2cccc3cccc(c23)C(=O)N1CCCN1CCN(CCCN2C(=O)c3cccc4cccc(c34)C2=O)CC1 | > 100 µM | > 100 µM | > 100 µM | > 100 µM | > 100 µM | > 100 µM | > 100 µM | > 100 µM |  |  |  |  |  |  |  |  | 
3 | O=C1/C(=C/c2ccccc2)CN(C(=O)OCC(Cl)(Cl)Cl)C/C1=C\c1ccccc1 | 4.48 µM | 3.77 µM | 7.68 µM | 5.91 µM | 12.1 µM | 6.29 µM |  | 15.4 µM |  |  |  |  |  |  |  |  | 
4 | Cc1cccc(N2C(=O)/C(=C/c3ccc(N(CCC#N)CCC#N)cc3C)N=C2c2cc([N+](=O)[O-])ccc2Cl)c1 | > 100 µM | > 100 µM |  | > 100 µM | > 100 µM | > 100 µM | > 100 µM | > 100 µM |  |  |  |  |  |  |  |  | 
5 | Cc1cccc(CC(C)(C)C)c1NC(=O)C(=O)C(C(=O)c1ccc2ccccc2c1)C1OC(=O)c2ccccc21 (centres undefined) | 26.2 µM | 35.1 µM |  |  | 31.1 µM | 30.9 µM | > 100 µM | 46.8 µM |  |  |  |  |  |  |  |  | 
6 | CCC1NCC(=O)c2c1[nH]c1ccccc21 (centres undefined) | > 100 µM | > 100 µM | > 100 µM | > 100 µM | > 100 µM | > 100 µM | > 100 µM | > 100 µM |  |  |  |  |  |  |  |  | 
7 | Cc1c(-c2coc(-c3ccc(Cl)cc3)n2)c(=O)n(-c2ccccc2)n1C | > 100 µM | > 100 µM | > 100 µM |  | > 100 µM | > 100 µM | > 100 µM | > 100 µM |  |  |  |  |  |  |  |  | 
8 | CCCCCCCCC(=O)NCCCNCCCNC(=O)CCCCCCCC | 19.9 µM | 7.7 µM | 6.31 µM | 4.55 µM | 27.6 µM | 32.1 µM | 29.9 µM | 10.6 µM |  |  |  |  |  |  |  |  | 
9 | Cc1ns/c(=N\C(=S)N(C)C)n1C | > 100 µM | > 100 µM | > 100 µM | > 100 µM | > 100 µM | > 100 µM | > 100 µM | > 100 µM |  |  |  |  |  |  |  |  | 
10 | COc1cc2c(c(OC)c1OC)-c1ccc(SC)c(=O)cc1[C@@H](NC(=O)c1ccc(C#N)cc1)CC2 | > 100 µM | > 100 µM | < 0.01 µM | > 100 µM | > 100 µM |  | > 100 µM | > 100 µM |  |  |  |  |  |  |  |  | 
11 | Cc1[nH]c(=O)nc(N/N=C/c2ccc(O)cc2)c1C(=O)Nc1ccc(Cl)cc1 | > 100 µM | > 100 µM | > 100 µM | > 100 µM | > 100 µM | > 100 µM | > 100 µM | > 100 µM |  |  |  |  |  |  |  |  | 
12 | O=C1c2ccccc2C(=O)c2c1ccc1c3ccccc3n(Cc3ccccc3)c21 |  | > 100 µM |  | > 100 µM | > 100 µM |  | > 100 µM | > 100 µM |  |  |  |  |  |  |  |  | 
13 | O=C1CC2Sc3ccccc3N=C2N1c1ccc(Cl)cc1Cl (centres undefined) | > 100 µM | > 100 µM | > 100 µM |  | > 100 µM |  | > 100 µM | > 100 µM |  |  |  |  |  |  |  |  | 
14 | CCOC(=O)NNC(=O)NC12CC3CC(CC(C3)C1)C2 | > 100 µM | > 100 µM | > 100 µM | > 100 µM | > 100 µM | > 100 µM | > 100 µM | > 100 µM |  |  |  |  |  |  |  |  | 
15 | Clc1ccccc1C1=NN(c2ccccc2)C2c3cc(Br)ccc3OCC12 (centres undefined) | > 100 µM | > 100 µM | > 100 µM | > 100 µM | > 100 µM | > 100 µM |  | > 100 µM |  |  |  |  |  |  |  |  | 
16 | Fc1nc(F)nc(-c2c3ccccc3c3n2CCS3)n1 |  | > 100 µM | > 100 µM | > 100 µM | > 100 µM | > 100 µM | > 100 µM | > 100 µM |  |  |  |  |  |  |  |  | 
17 | COc1cc(CC(=O)c2ccc3c(c2)OCO3)cc(OC)c1OC | > 100 µM | > 100 µM | > 100 µM | > 100 µM | > 100 µM | > 100 µM | > 100 µM | > 100 µM |  |  |  |  |  |  |  |  | 
18 | CC(C)=C1CCC(CN2CCCC2)C1=O (centres undefined) | 66.7 µM | 33.7 µM | > 100 µM | > 100 µM | 36.1 µM | > 100 µM | 32.3 µM | > 100 µM |  |  |  |  |  |  |  |  | 
19 | COc1cc2c(cc1OC)[C@H]1C(=O)c3cc4c(cc3[C@H]1N(C)C2=O)OCO4 | > 100 µM |  |  | > 100 µM | > 39.3 µM | > 79.5 µM | > 100 µM | > 100 µM | > 100 µM | > 100 µM |  |  |  |  |  |  | 
20 | CC(C)n1nc(C#Cc2cccc(NC(=O)c3cccc(C(F)(F)F)c3)c2)c2c(N)ncnc21 | 5.68 µM |  |  | > 100 µM | 6.1 µM | 2.51 µM | 34.4 µM | 1.59 µM | > 100 µM | 47.7 µM | 0.538 µM | 2.91 µM | 2.46 µM | 0.601 µM | 1.07 µM | 3.54 µM | 0.333 µM
